Like-named read-outs stand apart in the source and are kept apart here.
Columns and labels:
rat TRPV4 [1] = target: T1, rat TRPV4 (Rattus norvegicus, UniProt Q9ERZ8); design: method as in PMID 34440274
T1 construct: expressed in transfected cells

human TRPV1 [2] = target: T2, human TRPV1 (Homo sapiens, UniProt Q8NER1); design: method as in PMID 34440274
T2 construct: expressed in transfected cells

rat TRPV3 [3] = target: T3, rat TRPV3 (Rattus norvegicus, UniProt Q4QYD9); design: method as in PMID 34440274
T3 construct: expressed in transfected cells
T3 sequence (Q4QYD9 1-791): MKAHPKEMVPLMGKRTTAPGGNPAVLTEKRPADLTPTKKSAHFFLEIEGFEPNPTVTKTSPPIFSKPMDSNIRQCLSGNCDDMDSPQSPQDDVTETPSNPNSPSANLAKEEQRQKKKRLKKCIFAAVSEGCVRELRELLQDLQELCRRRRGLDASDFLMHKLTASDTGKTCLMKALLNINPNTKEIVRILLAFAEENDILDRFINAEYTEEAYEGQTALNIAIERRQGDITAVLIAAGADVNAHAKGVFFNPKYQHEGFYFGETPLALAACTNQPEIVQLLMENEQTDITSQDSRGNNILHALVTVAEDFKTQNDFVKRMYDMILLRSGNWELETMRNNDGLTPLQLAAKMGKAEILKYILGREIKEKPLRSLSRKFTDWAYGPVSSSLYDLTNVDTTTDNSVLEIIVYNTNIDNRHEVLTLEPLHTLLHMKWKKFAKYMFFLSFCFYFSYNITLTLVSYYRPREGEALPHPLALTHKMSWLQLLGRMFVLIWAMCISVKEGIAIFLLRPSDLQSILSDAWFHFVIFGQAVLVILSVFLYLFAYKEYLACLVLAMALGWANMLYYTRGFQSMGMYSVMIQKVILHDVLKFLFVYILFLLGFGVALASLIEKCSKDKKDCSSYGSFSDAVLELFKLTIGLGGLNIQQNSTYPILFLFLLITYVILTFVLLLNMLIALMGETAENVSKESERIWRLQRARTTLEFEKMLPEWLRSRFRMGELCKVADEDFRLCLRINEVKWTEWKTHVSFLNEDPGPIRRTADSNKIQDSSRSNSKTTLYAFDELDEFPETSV

rat TRPV2 [4] = target: T4, rat TRPV2 (Rattus norvegicus, UniProt Q9WUD2); design: method as in PMID 34440274; conditions: cited from earlier work; for TRPV2 Efficacy (% Ionomycin 4 μM): agonist effect as % of ionomycin 4 μM
T4 construct: expressed in transfected cells
T4 sequence (Q9WUD2 1-761): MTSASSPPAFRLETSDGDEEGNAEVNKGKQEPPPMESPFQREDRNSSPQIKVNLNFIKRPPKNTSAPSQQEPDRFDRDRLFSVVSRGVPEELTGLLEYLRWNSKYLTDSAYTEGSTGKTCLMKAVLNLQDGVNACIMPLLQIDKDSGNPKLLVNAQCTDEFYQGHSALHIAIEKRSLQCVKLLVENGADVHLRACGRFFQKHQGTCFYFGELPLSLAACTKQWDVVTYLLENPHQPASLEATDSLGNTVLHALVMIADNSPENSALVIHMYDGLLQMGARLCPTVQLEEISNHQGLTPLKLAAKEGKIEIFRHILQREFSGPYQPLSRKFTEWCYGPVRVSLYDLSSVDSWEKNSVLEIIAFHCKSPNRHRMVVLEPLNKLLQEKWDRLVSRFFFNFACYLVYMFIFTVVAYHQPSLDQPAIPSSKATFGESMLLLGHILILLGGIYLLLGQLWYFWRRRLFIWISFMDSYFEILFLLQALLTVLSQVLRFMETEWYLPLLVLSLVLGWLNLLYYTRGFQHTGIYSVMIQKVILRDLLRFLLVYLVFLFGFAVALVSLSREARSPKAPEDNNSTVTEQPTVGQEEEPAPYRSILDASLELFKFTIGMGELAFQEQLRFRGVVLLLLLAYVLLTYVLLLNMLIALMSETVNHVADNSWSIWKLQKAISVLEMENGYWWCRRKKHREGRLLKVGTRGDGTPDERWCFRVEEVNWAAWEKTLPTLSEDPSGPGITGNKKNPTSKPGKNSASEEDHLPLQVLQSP

rat TRPA1 [5] = target: T5, rat TRPA1 (Rattus norvegicus, UniProt Q6RI86); design: method as in PMID 34440274; conditions: cited from earlier work; for TRPA1 Efficacy (% AITC 100 μM): agonist effect as % of AITC 100 μM, HEK-293 rat TRPA1
T5 construct: expressed in transfected cells
T5 sequence (Q6RI86 whole entry): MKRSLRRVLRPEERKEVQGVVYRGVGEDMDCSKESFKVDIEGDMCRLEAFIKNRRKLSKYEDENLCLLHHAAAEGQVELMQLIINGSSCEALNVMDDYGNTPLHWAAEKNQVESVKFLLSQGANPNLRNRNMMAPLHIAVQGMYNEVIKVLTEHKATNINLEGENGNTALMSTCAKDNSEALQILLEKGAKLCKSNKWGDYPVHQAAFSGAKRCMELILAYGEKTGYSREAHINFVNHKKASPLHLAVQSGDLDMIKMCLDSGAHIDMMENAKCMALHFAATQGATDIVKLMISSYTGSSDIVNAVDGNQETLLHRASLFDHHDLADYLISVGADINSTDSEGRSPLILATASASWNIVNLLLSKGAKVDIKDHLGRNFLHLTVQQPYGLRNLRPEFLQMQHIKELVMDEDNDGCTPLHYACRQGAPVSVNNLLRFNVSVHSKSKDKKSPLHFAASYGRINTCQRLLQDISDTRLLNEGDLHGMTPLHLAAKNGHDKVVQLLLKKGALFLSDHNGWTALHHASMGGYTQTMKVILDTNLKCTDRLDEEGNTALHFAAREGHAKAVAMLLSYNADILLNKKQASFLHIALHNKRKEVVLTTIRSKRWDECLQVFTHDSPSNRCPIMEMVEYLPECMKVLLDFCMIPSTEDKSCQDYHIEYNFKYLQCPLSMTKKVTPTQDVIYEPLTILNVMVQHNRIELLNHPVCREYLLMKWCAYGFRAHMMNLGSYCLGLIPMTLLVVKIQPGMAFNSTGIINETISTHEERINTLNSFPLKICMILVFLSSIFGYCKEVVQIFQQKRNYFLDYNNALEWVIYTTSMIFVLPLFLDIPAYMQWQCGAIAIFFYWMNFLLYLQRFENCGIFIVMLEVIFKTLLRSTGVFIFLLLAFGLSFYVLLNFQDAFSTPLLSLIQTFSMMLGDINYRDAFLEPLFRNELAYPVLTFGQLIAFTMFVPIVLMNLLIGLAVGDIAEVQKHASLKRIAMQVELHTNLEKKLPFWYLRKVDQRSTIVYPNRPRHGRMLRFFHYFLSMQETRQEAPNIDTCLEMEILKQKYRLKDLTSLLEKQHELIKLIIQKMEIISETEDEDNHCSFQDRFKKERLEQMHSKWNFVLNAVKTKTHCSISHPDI

rat TRPM8 [6] = target: T6, rat TRPM8 (Rattus norvegicus, UniProt Q8R455); design: method as in PMID 34440274; conditions: vs Icilin 0.25 μM; 22 °C; cited from earlier work
T6 construct: expressed in transfected cells
T6 sequence (Q8R455 whole entry): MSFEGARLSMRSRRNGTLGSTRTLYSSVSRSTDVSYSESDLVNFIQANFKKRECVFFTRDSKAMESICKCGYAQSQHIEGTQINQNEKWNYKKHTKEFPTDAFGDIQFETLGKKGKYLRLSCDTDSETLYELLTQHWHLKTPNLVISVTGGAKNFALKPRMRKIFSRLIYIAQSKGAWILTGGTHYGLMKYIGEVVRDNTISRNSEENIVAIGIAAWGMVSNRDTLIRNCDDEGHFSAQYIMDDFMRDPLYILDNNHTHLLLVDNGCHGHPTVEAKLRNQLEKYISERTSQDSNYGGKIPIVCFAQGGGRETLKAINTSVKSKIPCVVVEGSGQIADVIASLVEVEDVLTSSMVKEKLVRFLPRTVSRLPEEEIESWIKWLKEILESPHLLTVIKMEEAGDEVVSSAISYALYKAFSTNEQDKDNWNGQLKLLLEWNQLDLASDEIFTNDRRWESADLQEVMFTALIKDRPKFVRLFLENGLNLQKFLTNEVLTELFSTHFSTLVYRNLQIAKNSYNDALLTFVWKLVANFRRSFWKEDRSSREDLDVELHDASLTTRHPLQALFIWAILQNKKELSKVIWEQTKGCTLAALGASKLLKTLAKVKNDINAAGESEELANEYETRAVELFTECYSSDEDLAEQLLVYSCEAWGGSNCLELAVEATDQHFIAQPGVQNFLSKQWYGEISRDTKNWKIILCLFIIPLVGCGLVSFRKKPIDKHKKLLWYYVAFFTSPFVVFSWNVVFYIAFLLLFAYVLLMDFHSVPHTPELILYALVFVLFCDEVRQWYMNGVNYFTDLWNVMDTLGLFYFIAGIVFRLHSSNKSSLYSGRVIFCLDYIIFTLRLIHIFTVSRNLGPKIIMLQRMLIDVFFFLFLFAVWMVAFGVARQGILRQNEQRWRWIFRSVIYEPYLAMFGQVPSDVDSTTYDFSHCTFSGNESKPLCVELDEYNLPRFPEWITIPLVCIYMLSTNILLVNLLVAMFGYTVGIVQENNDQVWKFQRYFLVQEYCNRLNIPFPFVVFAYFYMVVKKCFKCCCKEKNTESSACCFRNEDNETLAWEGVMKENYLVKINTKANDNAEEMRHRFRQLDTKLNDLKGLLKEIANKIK

human TRPV1 [7] = target: T2, human TRPV1; test: Thermo-TRP assay: [Ca2+]i elevation (Fluo-4) in HEK-293 cells transfected with TRPV1; type: cell-based
Experimental: (§1) The compounds were tested on HEK-293 cells either stably transfected with rat TRPA1, TRPV2, TRPV3, TRPV4, TRPM8 or human TRPV1 or not-transfected, by performing a continuous monitoring of the intracellular calcium ([Ca^2+]i) elevation during the experiments, following the protocol already described. […] Cell fluorescence before and after the addition of various concentrations of tested compounds was measured, normalizing the effects against the response to ionomycin (IM, 4 μM). The effect on [Ca^2+]i in non-transfected HEK-293 cells were used as the baseline and subtracted from the values obtained from the transfected ones. The efficacy of the agonists was determined by normalizing their effect to the maximum Ca^2+ influx effect on [Ca^2+]i observed with application of 4μM ionomycin. The effects of TRPA1 agonists are expressed as a percentage of the effect obtained with 100 μM allyl isothiocyanate (AITC). In the TRPV3 assay, rat TRPV3-expressing HEK-293 cells were first sensitized with the structurally unrelated agonist 2-aminoethoxydiphenyl borate (100 μM). For the TRPM8, the experiments were carried out at 22 °C. The potency (EC50 values) is determined as the concentration required to produce half-maximal increases in [Ca^2+]i. […] A dose-response curve fitting (sigmoidal dose-response variable slope) and parameter estimation were performed with Graph-Pad Prism 8 (GraphPad Software Inc., San Diego, CA, USA). All determinations were performed at least in triplicate.

rat TRPV3 [8] = target: T3, rat TRPV3; test: Thermo-TRP assay: [Ca2+]i elevation (Fluo-4) in HEK-293 cells transfected with TRPV3; type: cell-based
Experimental: (§2) The compounds were tested on HEK-293 cells either stably transfected with rat TRPA1, TRPV2, TRPV3, TRPV4, TRPM8 or human TRPV1 or not-transfected, by performing a continuous monitoring of the intracellular calcium ([Ca^2+]i) elevation during the experiments, following the protocol already described. On the day of the experiment, the cells were loaded for 1 h in the dark at room temperature with the fluorescent probe Fluo-4 AM (4 μM in DMSO containing 0.02% Pluronic F-127). The cells were rinsed, resuspended in Tyrode’s solution (145 mM NaCl, 2.5 mM KCl, 1.5 mM CaCl2, 1.2 mM MgCl2, 10 mM D-glucose, and 10 mM HEPES, pH 7.4), and transferred to a quartz cuvette of a spectrofluorimeter (PerkinElmer LS50B; λEX = 488 nm, λEM = 516 nm) equipped with a PTP-1 fluorescence Peltier system (PerkinElmer Life and Analytical Sciences, Waltham, MA, USA) under continuous stirring. Cell fluorescence before and after the addition of various concentrations of tested compounds was measured, normalizing the effects against the response to ionomycin (IM, 4 μM). The effect on [Ca^2+]i in non-transfected HEK-293 cells were used as the baseline and subtracted from the values obtained from the transfected ones. The efficacy of the agonists was determined by normalizing their effect to the maximum Ca^2+ influx effect on [Ca^2+]i observed with application of 4μM ionomycin. The effects of TRPA1 agonists are expressed as a percentage of the effect obtained with 100 μM allyl isothiocyanate (AITC). In the TRPV3 assay, rat TRPV3-expressing HEK-293 cells were first sensitized with the structurally unrelated agonist 2-aminoethoxydiphenyl borate (100 μM). For the TRPM8, the experiments were carried out at 22 °C. The potency (EC50 values) is determined as the concentration required to produce half-maximal increases in [Ca^2+]i. Antagonist/desensitizing behavior is evaluated against the agonist of the TRP analyzed by adding the compounds directly in the quartz cuvette 5 min before stimulation of cells with the agonist (allylisothiocyanate (100 μM) for TRPA1, capsaicin (0.1 μM) for TRPV1, cannabidiol (2 μM) for TRPV2, thymol (100 μM) for TRPV3, GSK1016790A (10 nM) for TRPV4, and icilin (0.25 μM) for TRPM8). The IC50 value is expressed as the concentration exerting a half-maximal inhibition of the agonist effect, taking as 100% the effect on [Ca^2+]i exerted by the agonist alone. A dose-response curve fitting (sigmoidal dose-response variable slope) and parameter estimation were performed with Graph-Pad Prism 8 (GraphPad Software Inc., San Diego, CA, USA). All determinations were performed at least in triplicate.

rat TRPV4 [9] = target: T1, rat TRPV4; test: Thermo-TRP assay: [Ca2+]i elevation (Fluo-4) in HEK-293 cells transfected with TRPV4; type: cell-based
Experimental: as §1

rat TRPV2 [10] = target: T4, rat TRPV2; test: Thermo-TRP assay: [Ca2+]i elevation (Fluo-4) in HEK-293 cells transfected with TRPV2; type: cell-based
Experimental: as §2

rat TRPM8 [11] = target: T6, rat TRPM8; test: Thermo-TRP assay: [Ca2+]i elevation (Fluo-4) in HEK-293 cells transfected with TRPM8; type: cell-based
Experimental: as §1

rat TRPA1 [12] = target: T5, rat TRPA1; test: Thermo-TRP assay: [Ca2+]i elevation (Fluo-4) in HEK-293 cells transfected with TRPA1; type: cell-based
Experimental: as §1

[13] = vs GSK1016790A 10 nM; read-out: IC50 TRPV4; cited from earlier work
[14] = vs Capsaicin 0.1 μM; read-out: IC50 TRPV1; cited from earlier work
[15] = agonist effect as % of ionomycin 4 μM; cited from earlier work
[16] = antagonist/desensitizing, vs Thymol 100 μM; cited from earlier work
[17] = read-out: IC50 TRPV4; vs GSK1016790A 10 nM; cited from earlier work
[18] = read-out: IC50 TRPV1; vs Capsaicin 0.1 μM; cited from earlier work

T2 sequence (Q8NER1 whole entry): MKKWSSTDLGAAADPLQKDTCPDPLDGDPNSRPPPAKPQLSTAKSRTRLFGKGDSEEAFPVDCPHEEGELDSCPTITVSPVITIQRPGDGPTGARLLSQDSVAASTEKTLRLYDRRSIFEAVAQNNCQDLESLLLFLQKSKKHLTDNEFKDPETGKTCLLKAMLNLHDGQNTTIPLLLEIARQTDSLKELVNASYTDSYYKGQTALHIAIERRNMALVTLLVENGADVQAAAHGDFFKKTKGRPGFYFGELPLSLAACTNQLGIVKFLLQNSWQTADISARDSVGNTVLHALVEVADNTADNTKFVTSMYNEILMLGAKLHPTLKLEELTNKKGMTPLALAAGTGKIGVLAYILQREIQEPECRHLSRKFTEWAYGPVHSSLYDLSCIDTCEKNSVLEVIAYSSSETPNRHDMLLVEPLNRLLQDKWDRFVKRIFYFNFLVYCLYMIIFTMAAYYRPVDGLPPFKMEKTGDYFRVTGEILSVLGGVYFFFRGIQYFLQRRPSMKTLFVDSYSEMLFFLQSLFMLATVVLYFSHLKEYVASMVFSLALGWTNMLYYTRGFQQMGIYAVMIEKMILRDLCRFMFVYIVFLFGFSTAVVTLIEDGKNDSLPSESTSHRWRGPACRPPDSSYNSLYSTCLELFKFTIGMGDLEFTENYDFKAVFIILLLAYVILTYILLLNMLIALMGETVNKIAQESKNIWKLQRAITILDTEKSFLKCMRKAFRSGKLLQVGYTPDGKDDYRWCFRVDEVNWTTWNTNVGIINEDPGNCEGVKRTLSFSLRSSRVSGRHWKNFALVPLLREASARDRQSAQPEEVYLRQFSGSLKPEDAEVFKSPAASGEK
T1 sequence (Q9ERZ8 whole entry): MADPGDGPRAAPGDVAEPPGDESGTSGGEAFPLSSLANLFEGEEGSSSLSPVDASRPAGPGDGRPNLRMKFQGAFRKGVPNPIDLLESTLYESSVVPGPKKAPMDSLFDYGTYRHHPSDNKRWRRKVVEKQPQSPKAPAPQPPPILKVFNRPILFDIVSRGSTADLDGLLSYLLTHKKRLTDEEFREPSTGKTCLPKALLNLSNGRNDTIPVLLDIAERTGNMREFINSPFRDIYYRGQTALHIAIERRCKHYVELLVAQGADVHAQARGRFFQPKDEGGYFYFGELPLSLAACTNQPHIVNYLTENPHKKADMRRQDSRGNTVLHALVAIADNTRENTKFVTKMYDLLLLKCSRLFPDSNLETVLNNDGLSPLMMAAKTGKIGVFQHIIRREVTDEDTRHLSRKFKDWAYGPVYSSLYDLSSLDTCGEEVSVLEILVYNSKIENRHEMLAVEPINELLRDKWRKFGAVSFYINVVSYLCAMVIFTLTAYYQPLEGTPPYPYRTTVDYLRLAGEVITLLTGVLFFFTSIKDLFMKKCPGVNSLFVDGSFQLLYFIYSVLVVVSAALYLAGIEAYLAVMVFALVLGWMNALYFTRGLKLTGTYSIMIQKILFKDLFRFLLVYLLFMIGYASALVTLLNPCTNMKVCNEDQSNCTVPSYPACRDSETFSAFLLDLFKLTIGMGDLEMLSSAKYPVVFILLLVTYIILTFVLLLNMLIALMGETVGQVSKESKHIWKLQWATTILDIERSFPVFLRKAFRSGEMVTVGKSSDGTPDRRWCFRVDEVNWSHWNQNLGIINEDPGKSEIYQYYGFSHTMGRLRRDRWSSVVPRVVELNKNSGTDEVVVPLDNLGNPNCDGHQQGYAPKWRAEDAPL

Structure (SMILES)	IC50 (rat TRPV4 [1]; [13]) [µM]	IC50 (human TRPV1 [2]; [14]) [µM]	TRPV3 Efficacy (% Ionomycin 4 μM) (rat TRPV3 [3]; [15]) [%]	IC50 (rat TRPV3 [3]; [16]) [µM]	TRPV2 Efficacy (% Ionomycin 4 μM) (rat TRPV2 [4]) [%]	TRPA1 Efficacy (% AITC 100 μM) (rat TRPA1 [5]) [%]	IC50 (rat TRPV4 [1]; [17]) [µM]	IC50 (human TRPV1 [2]; [18]) [µM]	also measured
C=C(C)[C@@H]1CCC(C)=C[C@H]1c1c(O)cc(C(C)(C)CCCCCC)cc1O [5a, DMH-CBD]	> 100	> 100	15.8 ± 0.4	> 30	<10	133.4 ± 5.3			
CCCCCCC(C)(C)c1cc(O)c2c(c1)OC(C)(C)[C@@H]1CC=C(C)C[C@@H]21 [6a, DMH-Δ⁸-THC]			53.8 ± 1.6		<10	124.2 ± 4.0	> 100	> 100	
CCCCCCC(C)(C)c1cc(O)c(C/C=C(\C)CCC=C(C)C)c(O)c1 [7a, DMH-CBG]		> 100	64.6 ± 4.8	> 30	65.3 ± 0.7	99.2 ± 4.5			
CCCCCCC(C)(C)c1cc(O)c2c(c1)OC(C)(CCC=C(C)C)C=C2 (centres unmarked) [8a, DMH-CBC]	> 100	> 100	41.6 ± 1.8	> 50	76.1 ± 0.6	120.4 ± 2.8			IC50 (rat TRPM8 [6]): > 100 µM; EC50 (rat TRPV3 [3]; half-maximal increase in [Ca2+]i; read-out: TRPV3 Potency EC50; cited from earlier work): > 50 µM; IC50 (rat TRPA1 [5]; read-out: IC50 TRPA1, antagonist/desensitizing, vs AITC 100 μM): 370 nM
CCCCCCC(C)(C)c1cc(O)c2c(c1)OC(C)(C)c1ccc(C)cc1-2 [9a, DMH-CBN]			20.9 ± 3.0		10.5 ± 0.02	132.3 ± 7.9	> 100	> 100	EC50 (rat TRPV3 [3]; read-out: TRPV3 Potency EC50; half-maximal increase in [Ca2+]i; cited from earlier work): 41.4 ± 21.6 µM; IC50 (rat TRPV2 [4]; read-out: IC50 TRPV2, vs CBD 2 μM): > 50 µM; EC50 (rat TRPV2 [4]; read-out: TRPV2 Potency EC50, half-maximal increase in [Ca2+]i): 250 ± 30 nM
CCCCCCC(C)(C)C1=CC2=C(C(=O)C1=O)c1cc(C)ccc1C(C)(C)O2 [9b]									IC50 (human TRPV1 [7]): > 100 µM; TRPV3 Efficacy (% Ionomycin 4 μM) (rat TRPV3 [8]; agonist effect as % of ionomycin 4 μM, cells sensitized with 2-aminoethoxydiphenyl borate 100 μM): 32.5 ± 0.65%; IC50 (rat TRPV3 [8]; antagonist/desensitizing, vs Thymol 100 μM): 19.4 ± 3.5 µM; EC50 (rat TRPV3 [8]; half-maximal increase in [Ca2+]i, read-out: TRPV3 Potency EC50): 1150 ± 150 nM; IC50 (rat TRPV4 [9]): > 100 µM; TRPV2 Efficacy (% Ionomycin 4 μM) (rat TRPV2 [10]; agonist effect as % of ionomycin 4 μM): 23.4 ± 3.7%; EC50 (rat TRPV2 [10]; half-maximal increase in [Ca2+]i, read-out: TRPV2 Potency EC50): 2000 ± 1600 nM; IC50 (rat TRPV2 [10]; vs CBD 2 μM): 5.2 ± 0.6 µM; IC50 (rat TRPM8 [11]): > 100 µM; IC50 (rat TRPA1 [12]; IC50 TRPA1, antagonist/desensitizing, added 5 min before AITC 100 μM): 15.1 ± 2.4 µM; TRPA1 Efficacy (% AITC 100 μM) (rat TRPA1 [12]; agonist effect as % of AITC 100 μM, HEK-293 rat TRPA1): 20.5%
